Marks after values point to notes of the source that are not given here.

The nature of the first data set: Measurement of LogP values by HPLC on reversed phase columns (EEC directive 79/831 Annex V.A8). Format: physicochemical.
Conditions: not given
The procedure: [table] If more than one Log P value is available within the same method, all the values are given and separated by “+”. Calibration was done with straight-chain alkan2-ones (with 3 to 16 carbon atoms) with known Log P values (measurement of Log P values using retention times with linear interpolation between successive alkanones). Lambda-max-values were determined using UV-spectra from 200 nm to 400 nm and the peak values of the chromatographic signals.
For the compound `OC(Cn1cncn1)(c1ccc(Oc2ccc(Br)cc2)nc1C(F)(F)F)C(F)(F)F` (centres unmarked) [I.85], the LogP was 3.48^[a]. The same measure, in the same setting: the result for `OC(Cn1cncn1)(c1ccc(Oc2ccc(C(F)(F)F)cc2)nc1C(F)(F)F)C1CC1` (centres unmarked) [I.87] reads 3.57^[a]. As to `OC(Cn1cncn1)c1cnc(Oc2ccc(C(F)(F)F)cc2)cc1Cl` (centres unmarked) [I.88], the LogP was 2.64^[a].

With `CC(O)(Cn1cncn1)c1ccc(Oc2ccc(Cl)cc2F)nc1C(F)(F)F` (centres unmarked) [I.89], the LogP is 3.15^[a]. Still for that read-out and setting: with `OC(Cn1cncn1)c1ccc(Oc2ccc(Cl)cc2F)nc1C(F)(F)F` (centres unmarked) [I.90] the figure was 2.88^[a]. Same read-out and setting: the result for `OC(Cn1cncn1)(c1ccc(Oc2ccc(C(F)F)cc2)nc1C(F)(F)F)C1CC1` (centres unmarked) [I.93] reads 3.13^[a].

With `OC(Cn1cncn1)c1cnc(Oc2ccc(Cl)cc2)cc1C(F)F` (centres unmarked) [I.94], the LogP is 2.13^[a]. As to `CC(O)(Cn1cncn1)c1ccc(Oc2ccc(OC(F)(F)F)cc2)nc1C(F)(F)F` (centres unmarked) [I.95], the LogP is 2.98^[a]. Still for that read-out and setting: the result for `CC(O)(Cn1cncn1)c1ccc(Oc2ccc(Cl)cc2)nc1C(F)(F)F` (centres unmarked) [I.96] reads 2.68^[a]; that for `OC(Cn1cncn1)(c1ccc(Oc2ccc(S(F)(F)(F)(F)F)cc2)nc1C(F)(F)F)C1CC1` (centres unmarked) [I.97], 3.80^[a]; that for `CCCCC(O)(Cn1cncn1)c1ccc(Oc2ccc(Cl)cc2)nc1C(F)(F)F` (centres unmarked) [I.98], 3.87^[a]. The same measure, in the same setting: the result for `CCCC(O)(Cn1cncn1)c1ccc(Oc2ccc(Cl)cc2)nc1C(F)(F)F` (centres unmarked) [I.100] reads 3.55^[a]; that for `CCC(O)(Cn1cncn1)c1ccc(Oc2ccc(Cl)cc2)nc1C(F)(F)F` (centres unmarked) [I.103], 3.19^[a].

Consider `FC(F)c1ccc(Oc2ccc(C3(C4CC4)CO3)c(C(F)(F)F)n2)cc1` (centres unmarked) [IX.05], for which the LogP was 4.49^[a]. On the same count and under the same terms, the result for `CC1(c2ccc(Oc3ccc(Cl)cc3)nc2C(F)(F)F)CO1` (centres unmarked) [IX.06] reads 4.44^[a].

For the compound `FC(F)(F)c1nc(Oc2ccc(Br)cc2)ccc1C1(C2CC2)CO1` (centres unmarked) [IX.08], the LogP was 5.11^[a]. Same read-out and setting: with `FC(F)(F)c1nc(Oc2ccc(S(F)(F)(F)(F)F)cc2)ccc1C1(C2CC2)CO1` (centres unmarked) [IX.09] the figure was 5.22^[a].

For `FC(F)(F)c1ccc(Oc2ccc(C3(C4CC4)CO3)c(C(F)(F)F)n2)cc1` (centres unmarked) [IX.11], the LogP was 5.00^[a]. On the same count and under the same terms, the result for `CC(=O)c1cnc(Oc2ccc(S(F)(F)(F)(F)F)cc2)cc1C(F)(F)F` [V.03] reads 4.32^[a]; that for `CC(=O)c1cnc(Oc2ccc(C(F)F)cc2)cc1C(F)(F)F` [V.04], 3.62^[a]; that for `CC(=O)c1ccc(Oc2ccc(Cl)cc2)nc1C(F)F` [V.05], 3.35^[a].

For the compound `CC(=O)c1ccc(Oc2ccc(Cl)cc2)nc1OC(F)(F)F` [V.06], the LogP is 4.37^[a]. On to `CC(=O)c1cnc(Oc2ccc(Cl)cc2F)cc1C(F)(F)F` [V.07], for which the LogP is 4.09^[a]. For `CC(=O)c1ccc(Oc2ccc(Cl)c(Cl)c2)nc1Cl` [V.11], the LogP is 4.10^[a].

Regarding `CC(=O)c1ccc(Oc2ccc(F)cc2)nc1Cl` [V.12], the LogP is 3.11^[a].

Regarding `CC(=O)c1ccc(Oc2ccc(Cl)cc2)nn1` [V.13], the LogP is 2.73^[a]. Same read-out and setting: the result for `CC(=O)c1ccc(Oc2ccc(C(F)F)cc2)nc1Cl` [V.14] reads 3.15^[a]. On the same count and under the same terms, with `CC(=O)c1cnc(Oc2ccc(OC(F)(F)F)cc2)cc1C(F)(F)F` [V.15] the figure was 4.20^[a]; with `CC(=O)c1ccc(Oc2ccc(S(F)(F)(F)(F)F)cc2)nc1C(F)(F)F` [V.16], 4.09^[a]. With `CC(=O)c1ccc(Oc2ccc(C(F)(F)F)cc2)nc1C(F)(F)F` [V.17], the LogP is 3.96^[a]. Same read-out and setting: the result for `CC(=O)c1cnc(Oc2ccc(C(F)(F)F)cc2)cc1Cl` [V.18] reads 3.87^[a]; that for `CC(=O)c1cnc(Oc2ccc(Cl)cc2)cc1C(C)=O` [V.19], 3.11^[a]. As for `CC(=O)c1ccc(Oc2ccc(Br)cc2)nc1C(F)(F)F` [V.20], the LogP is 3.85^[a]. On the same count and under the same terms, the result for `CC(=O)c1cnc(Oc2ccc(Cl)cc2)cc1Cl` [V.22] reads 3.51^[a]; that for `CC(=O)c1ncc(Oc2ccc(Cl)cc2)nc1Cl` [V.23], 3.51^[a]; that for `CC(=O)c1ccc(Oc2ccc(Cl)cc2)nc1F` [V.24], 3.51^[a]. As to `CC(=O)c1cnc(Oc2ccc(C(F)(F)F)cc2)cc1C(F)(F)F` [V.25], the LogP was 4.04^[a]. The same measure, in the same setting: the result for `CC(=O)c1ccc(Oc2ccc(Cl)cc2)nc1Cl` [V.26] reads 3.45^[a]. As to `CC(=O)c1cnc(Oc2ccc(Br)cc2)cc1C(F)(F)F` [V.27], the LogP was 3.99^[a]. On the same count and under the same terms, with `CC(=O)c1ccc(Oc2ccc(OC(F)(F)F)cc2)nc1Cl` [V.28] the figure was 3.89^[a]; with `COc1ccc(Oc2ccc(C(C)=O)c(Cl)n2)c(Cl)c1` [V.29], 3.44^[a]; with `CC(=O)c1ccc(Oc2ccc(S(F)(F)(F)(F)F)cc2)nc1Cl` [V.30], 3.99^[a]. Same read-out and setting: with `CC(=O)c1ccc(Oc2c(F)cc(Cl)cc2F)nc1C(F)(F)F` [V.31] the figure was 4.06^[a]; with `CC(=O)c1ccc(Oc2ccc(C(F)F)cc2)nc1C(F)(F)F` [V.32], 3.26^[a]. With `CC(=O)c1ncc(Oc2ccc(Cl)cc2)nc1Oc1ccc(Cl)cc1` [V.33], the LogP is 4.36^[a]. The same measure, in the same setting: with `CC(=O)c1ccc(Oc2ccc(Br)cc2)nc1C(F)F` [V.34] the figure was 3.46^[a]; with `CC(=O)c1ccc(Oc2ccc(OC(F)(F)F)cc2)nc1C(F)(F)F` [V.35], 4.04^[a]. Still for that read-out and setting: with `CC(=O)c1cnc(Oc2ccc(Br)cc2)cc1C(F)F` [V.36] the figure was 3.74^[a]; with `CC(=O)c1cnc(Oc2ccc(Cl)cc2)cc1C(F)F` [V.37], 3.57^[a]; with `CC(=O)c1ccc(Oc2ccc(Cl)cc2F)nc1C(F)(F)F` [V.38], 3.87^[a]. The same measure, in the same setting: the result for `O=C(c1ccc(Oc2ccc(C(F)(F)F)cc2)nc1C(F)(F)F)C1CC1` [V.39] reads 4.37^[a]. In the case of `O=C(c1ccc(Oc2ccc(Br)cc2)nc1C(F)(F)F)C1CC1` [V.40], the LogP was 4.49^[a]. On the same count and under the same terms, the result for `O=Cc1ccc(Oc2ccc(C(=O)C3CC3)c(C(F)(F)F)n2)cc1` [V.42] reads 3.21^[a]. Still for that read-out and setting: the result for `O=C(c1ccc(Oc2ccc(S(F)(F)(F)(F)F)cc2)nc1C(F)(F)F)C1CC1` [V.43] reads 4.67^[a]; that for `O=C(c1ccc(Oc2ccc(C(F)F)cc2)nc1C(F)(F)F)C1CC1` [V.44], 3.80^[a].

Staying with this data set, now noted: reversed phase HPLC column, method [a]: LC-UV, acidic range, 0.1% formic acid in water and acetonitrile as eluent.
Usually chromatographic logP stands for lipophilicity estimated from chromatographic retention. Compound `FC(F)(F)c1nc(Oc2ccc(Cl)cc2)ccc1C1(C2CC2)CO1` (centres unmarked) [IX.07, 6-(4-chlorophenoxy)-3-(2-cyclopropyloxiran-2-yl)-2-(trifluoromethyl)pyridine] returned a chromatographic logP of 4.8. `CC(=O)c1ccc(Oc2ccc(Cl)cc2)nc1C(F)(F)F` [V.01, 1-[6-(4-chlorophenoxy)-2-(trifluoromethyl)-3-pyridyl]ethanone] displayed a chromatographic logP of 3.8. Same read-out and setting: the result for `CC(=O)c1cnc(Oc2ccc(Cl)cc2)cc1C(F)(F)F` [V.02, 1-[6-(4-chlorophenoxy)-4-(trifluoromethyl)-3-pyridyl]ethanone] reads 3.89. Still for that read-out and setting: the result for `O=C(c1ccc(Oc2ccc(Cl)cc2)nc1C(F)(F)F)C1CC1` [V.41, [6-(4-chlorophenoxy)-2-(trifluoromethyl)-3-pyridyl]-cyclopropyl-methanone] reads 4.17.

The values above are taken from US10485236B2, “Triazole derivatives, intermediates thereof and their use as fungicides” (Bayer CropScience Aktiengesellschaft, priority 2015, dated 2019).
